In US10214508B2, “Nitrogen-containing heterocyclic compound” (Takeda Pharmaceutical Company Limited, priority 2014, dated 2019):
Structures can show the parent of a compound that is named as a salt.

Target: T1, human M1 receptor (hCHRM1) (Homo sapiens, UniProt P11229)
T1 construct: expressed in transfected cells
T1 sequence (P11229 1-460): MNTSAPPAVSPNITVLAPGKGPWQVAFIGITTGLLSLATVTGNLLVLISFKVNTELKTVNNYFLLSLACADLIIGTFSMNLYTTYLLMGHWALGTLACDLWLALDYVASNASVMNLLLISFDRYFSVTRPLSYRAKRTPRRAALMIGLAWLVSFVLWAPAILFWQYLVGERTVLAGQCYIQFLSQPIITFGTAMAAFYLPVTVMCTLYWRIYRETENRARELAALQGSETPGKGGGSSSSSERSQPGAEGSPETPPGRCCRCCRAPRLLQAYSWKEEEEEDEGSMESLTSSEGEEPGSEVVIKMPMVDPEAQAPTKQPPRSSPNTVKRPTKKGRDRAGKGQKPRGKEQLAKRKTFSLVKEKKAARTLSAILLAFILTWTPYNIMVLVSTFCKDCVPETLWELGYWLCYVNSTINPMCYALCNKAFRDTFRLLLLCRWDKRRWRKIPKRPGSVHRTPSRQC
Test: Measurement of M1 receptor positive allosteric modulator (M1PAM) activity, calcium fluorescence (FLIPRtetra)
Format: cell-based
Conditions: 10 μM test compound with acetylcholine at EC20 (final 0.6-0.8 nM); 100% = acetylcholine 1 μM, 0% = DMSO; CHO-K1 cells expressing hCHRM1
In short: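 CHO-K1 cells stably expressing hM1 were Fluo-4-loaded; compound added with acetylcholine at EC20 (0.6-0.8 nM final), calcium fluorescence read 1 min on FLIPRtetra. Activity scaled between DMSO (0%) and 1 μM acetylcholine (100%); inflection point of concentration–response reported as IP.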

Structure (SMILES)	activity (%) at 10 μM [%]
COc1ccc(Cc2cc(C(=O)N[C@H]3COCC[C@@H]3O)nc(C)c2Cl)cn1 [Example 106, 1,5-anhydro-2-(((5-chloro-4-((6-methoxypyridin-3-yl)methyl)-6-methylpyridin-2-yl)carbonyl)amino)-2,4-dideoxy-L-threo-pentitol]	104
O=C(N[C@H]1CCC[C@@H]1O)c1cc(Cc2ccc(-n3cccn3)cc2F)c(Cl)cn1 [Example 53, 5-chloro-4-(2-fluoro-4-(1H-pyrazol-1-yl)benzyl)-N-((1S,2S)-2-hydroxycyclopentyl)pyridine-2-carboxamide]	93
Cc1cnc(C(=O)N[C@H]2COCC[C@@H]2O)cc1Cc1ccc(-c2ccn(C)n2)cc1F [Example 16, 1,5-anhydro-2,4-dideoxy-2-(((4-(2-fluoro-4-(1-methyl-1H-pyrazol-3-yl)benzyl)-5-methylpyridin-2-yl)carbonyl)amino)-L-threo-pentitol]	91
Cn1ccc(-c2ccc(Cc3cc(C(=O)N[C@H]4COCC[C@@H]4O)ncc3C(F)F)cc2)n1 [Example 40, 1,5-anhydro-2,4-dideoxy-2-(((5-(difluoromethyl)-4-(4-(1-methyl-1H-pyrazol-3-yl)benzyl)pyridin-2-yl)carbonyl)amino)-L-threo-pentitol]	95
CCn1cc(-c2ccc(Cc3cc(C(=O)N[C@H]4CCCC[C@@H]4O)nc(C)c3Cl)cn2)cn1 [Example 108, 5-chloro-4-((6-(1-ethyl-1H-pyrazol-4-yl)pyridin-3-yl)methyl)-N-((1S,2S)-2-hydroxycyclohexyl)-6-methylpyridine-2-carboxamide]	114
O=C(N[C@H]1CCC[C@@H]1O)c1cc(Cc2ccc(-n3cccn3)cc2)c(Cl)cn1 [Example 7, 5-chloro-N-((1S,2S)-2-hydroxycyclopentyl)-4-(4-(1H-pyrazol-1-yl)benzyl)pyridine-2-carboxamide]	104
COc1cc(Cc2ccc(-n3cccn3)cc2)cc(C(=O)N[C@H]2CCC[C@@H]2O)n1 [Example 68, N-((1S,2S)-2-hydroxycyclopentyl)-6-methoxy-4-(4-(1H-pyrazol-1-yl)benzyl)pyridine-2-carboxamide]	96
COc1ccc(Cc2cc(C(=O)N[C@H]3COCC[C@@H]3O)nc(C)c2C)cc1 [Example 83, 1,5-anhydro-2,4-dideoxy-2-(((4-(4-methoxybenzyl)-5,6-dimethylpyridin-2-yl)carbonyl)amino)-L-threo-pentitol]	103
O=C(N[C@H]1COCC[C@@H]1O)c1cc(Cc2ccc(-n3cccn3)cc2)c(C(F)F)cn1 [Example 39, 1,5-anhydro-2,4-dideoxy-2-(((5-(difluoromethyl)-4-(4-(1H-pyrazol-1-yl)benzyl)pyridin-2-yl)carbonyl)amino)-L-threo-pentitol]	100
Cc1cnc(C(=O)NC2CC2)cc1Cc1ccc(-c2ccn(C)n2)cc1 [Example 28, N-cyclopropyl-5-methyl-4-(4-(1-methyl-1H-pyrazol-3-yl)benzyl)pyridine-2-carboxamide]	73
Cc1nc(C(=O)N[C@H]2COCC[C@@H]2O)cc(Cc2ccc(-n3cccn3)cc2)c1Cl [Example 99, 1,5-anhydro-2-(((5-chloro-6-methyl-4-(4-(1H-pyrazol-1-yl)benzyl)pyridin-2-yl)carbonyl)amino)-2,4-dideoxy-L-threo-pentitol]	96
Cc1nc(C(=O)N[C@H]2COCC[C@@H]2O)cc(Cc2ccc(-c3ccn(C)n3)cc2)c1Cl [Example 96, 1,5-anhydro-2-(((5-chloro-6-methyl-4-(4-(1-methyl-1H-pyrazol-3-yl)benzyl)pyridin-2-yl)carbonyl)amino)-2,4-dideoxy-L-threo-pentitol]	112
Cc1ccc(Cc2cc(C(=O)N[C@H]3CCCC[C@@H]3O)nc(C)c2Cl)cn1 [Example 110, 5-chloro-N-((1S,2S)-2-hydroxycyclohexyl)-6-methyl-4-((6-methylpyridin-3-yl)methyl)pyridine-2-carboxamide]	95
COc1nc(C(=O)N[C@H]2CCCC[C@@H]2O)cc(Cc2ccc(-c3ccn(C)n3)cc2)c1C [Example 88, N-((1S,2S)-2-hydroxycyclohexyl)-6-methoxy-5-methyl-4-(4-(1-methyl-1H-pyrazol-3-yl)benzyl)pyridine-2-carboxamide]	99
Cc1cnc(C(=O)N[C@H]2CCC[C@@H]2O)cc1Cc1ccc(-c2cn(C)nc2C)cc1 [Example 14, 4-(4-(1,3-dimethyl-1H-pyrazol-4-yl)benzyl)-N-((1S,2S)-2-hydroxycyclopentyl)-5-methylpyridine-2-carboxamide Dihydrochloride]	100
Cc1cnc(C(=O)N[C@H]2CCCC[C@@H]2O)cc1Cc1ccc(-n2cccn2)nc1 [Example 35, N-((1S,2S)-2-hydroxycyclohexyl)-5-methyl-4-((6-(1H-pyrazol-1-yl)pyridin-3-yl)methyl)pyridine-2-carboxamide]	102
Cc1cnc(C(=O)NC2CCC2)cc1Cc1ccc(-c2ccn(C)n2)cc1 [Example 29, N-cyclobutyl-5-methyl-4-(4-(1-methyl-1H-pyrazol-3-yl)benzyl)pyridine-2-carboxamide]	93
Cc1cnc(C(=O)NC2(CO)CC2)cc1Cc1ccc(-c2ccn(C)n2)cc1 [Example 23, N-(1-(hydroxymethyl)cyclopropyl)-5-methyl-4-(4-(1-methyl-1H-pyrazol-3-yl)benzyl)pyridine-2-carboxamide]	84
O=C(N[C@H]1CCCC[C@@H]1O)c1cc(Cc2ccc(-n3cccn3)cc2)c(C(F)F)cn1 [Example 38, 5-(difluoromethyl)-N-((1S,2S)-2-hydroxycyclohexyl)-4-(4-(1H-pyrazol-1-yl)benzyl)pyridine-2-carboxamide]	101
Cc1nn(C)cc1-c1ccc(Cc2cc(C(=O)N[C@H]3CCCC[C@@H]3O)nc(C)c2Cl)cn1 [Example 109, 5-chloro-4-((6-(1,3-dimethyl-1H-pyrazol-4-yl)pyridin-3-yl)methyl)-N-((1S,2S)-2-hydroxycyclohexyl)-6-methylpyridine-2-carboxamide]	95
O=C(N[C@H]1CCC[C@@H]1O)c1cc(Cc2ccc(-n3cccn3)cc2)c(C(F)F)cn1 [Example 37, 5-(difluoromethyl)-N-((1S,2S)-2-hydroxycyclopentyl)-4-(4-(1H-pyrazol-1-yl)benzyl)pyridine-2-carboxamide]	106
CCc1cnc(C(=O)N[C@H]2CCCC[C@@H]2O)cc1Cc1ccc(-n2cccn2)cc1 [Example 43, 5-ethyl-N-((1S,2S)-2-hydroxycyclohexyl)-4-(4-(1H-pyrazol-1-yl)benzyl)pyridine-2-carboxamide]	92
O=C(N[C@H]1CCCC[C@@H]1O)c1cc(Cc2ccc(-n3cccn3)cc2)c(Cl)cn1 [Example 6, 5-chloro-N-((1S,2S)-2-hydroxycyclohexyl)-4-(4-(1H-pyrazol-1-yl)benzyl)pyridine-2-carboxamide]	108
Cc1ccc(Cc2cc(C(=O)N[C@H]3CCCC[C@@H]3O)nc(C)c2C)cn1 [Example 84, N-((1S,2S)-2-hydroxycyclohexyl)-5,6-dimethyl-4-((6-methylpyridin-3-yl)methyl)pyridine-2-carboxamide]	93
COc1nc(C(=O)N[C@H]2COCC[C@@H]2O)cc(Cc2ccc(-c3ccn(C)n3)cc2)c1C [Example 89, 1,5-anhydro-2,4-dideoxy-2-(((6-methoxy-5-methyl-4-(4-(1-methyl-1H-pyrazol-3-yl)benzyl)pyridin-2-yl)carbonyl)amino)-L-threo-pentitol]	101
Cc1cnc(C(=O)NC2CCCOC2)cc1Cc1ccc(-c2ccn(C)n2)cc1 (centres unmarked) [Example 32, 5-methyl-4-(4-(1-methyl-1H-pyrazol-3-yl)benzyl)-N-(tetrahydro-2H-pyran-3-yl)pyridine-2-carboxamide]	101
Cc1nc(C(=O)N[C@H]2CCC[C@@H]2O)cc(Cc2ccc(-n3cccn3)cc2)c1Cl [Example 100, 5-chloro-N-((1S,2S)-2-hydroxycyclopentyl)-6-methyl-4-(4-(1H-pyrazol-1-yl)benzyl)pyridine-2-carboxamide]	97
Cc1cnc(C(=O)N[C@H]2CCCC[C@@H]2O)cc1Cc1ccc(-n2cccn2)cc1F [Example 12, 4-(2-fluoro-4-(1H-pyrazol-1-yl)benzyl)-N-((1S,2S)-2-hydroxycyclohexyl)-5-methylpyridine-2-carboxamide]	113
Cc1cc(Cc2ccc(-n3cccn3)cc2)cc(C(=O)N[C@H]2CCCC[C@@H]2O)n1 [Example 70, N-((1S,2S)-2-hydroxycyclohexyl)-6-methyl-4-(4-(1H-pyrazol-1-yl)benzyl)pyridine-2-carboxamide]	87
